The results in this text go back to patent US9145373B2, “Certain kynurenine-3-monooxygenase inhibitors, pharmaceutical compositions, and methods of use thereof” (CHDI FOUNDATION, INC., priority 2008, dated 2015).

Molecules are shown by their SMILES. Where a name gives a salt, the structure may show the parent alone.

T1 sequence (Q91WN4 whole entry): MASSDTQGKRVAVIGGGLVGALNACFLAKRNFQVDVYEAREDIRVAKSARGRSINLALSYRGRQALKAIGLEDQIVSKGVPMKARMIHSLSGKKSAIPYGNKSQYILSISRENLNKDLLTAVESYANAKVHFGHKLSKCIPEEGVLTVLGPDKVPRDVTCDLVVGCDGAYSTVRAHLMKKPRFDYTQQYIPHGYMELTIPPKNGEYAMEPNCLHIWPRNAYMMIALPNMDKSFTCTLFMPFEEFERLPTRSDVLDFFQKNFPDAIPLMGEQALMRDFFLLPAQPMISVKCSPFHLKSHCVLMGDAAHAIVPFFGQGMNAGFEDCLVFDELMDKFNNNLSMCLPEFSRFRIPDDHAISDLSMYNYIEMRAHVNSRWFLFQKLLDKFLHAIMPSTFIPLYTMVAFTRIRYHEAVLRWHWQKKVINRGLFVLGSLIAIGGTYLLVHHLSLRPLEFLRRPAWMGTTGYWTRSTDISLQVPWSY

The first assay has as its target T1, KMO mouse enzyme (Mus musculus, UniProt Q91WN4).
T1 construct: KMO enzyme prepared at Evotec from mouse liver (4-6 weeks old) via mitochondria isolation; from tissue; host or cells: mouse liver (4-6 weeks old), mitochondria isolation, prepared at Evotec
Nature of the assay: KMO mouse enzyme assay: L-Kynurenine hydroxylation to 3-Hydroxy-Kynurenine monitored by LC/MS (MRM). To be noted: compound at 10 μM; KMO enzyme from mouse liver mitochondria. Format: biochemical. How it is done: A method of monitoring L-Kynurenine (KYN) hydroxylation to form 3-Hydroxy-Kynurenine (3OH-KYN) by LC/MS is described. Product is quantified by multiple reaction monitoring (MRM method).
• Compound: Stock concentrations: 10 mM in 100% DMSO • Enzyme: KMO enzyme prepared at Evotec from mouse liver (4-6 weeks old) via mitochondria isolation as described in the literature • Substrate: L-Kynurenine (Sigma: Cat# K3750, stock concentration: 10 mM in 100 mM potassium phosphate buffer, pH 7.4) Assay Conditions: […]
Turning to `Cl.O=C(O)c1cc(-c2cc(Cl)cc(Cl)c2)ccn1` [4-(3,5-Dichloro-phenyl)-pyridine-2-carboxylic acid hydrocloride salt], the “INH.Mouse @ 10 μM” value is reported as 76.6.

The same assay, now with this note: compound at 10 μM; KMO enzyme from mouse liver mitochondria; read-out: INH.Mouse @ 10 μM.
Turning to `Cc1nnc(NC(=O)c2cc(-c3ccc(Cl)c(Cl)c3)ncn2)o1` [6-(3,4-Dichloro-phenyl)-pyrimidine-4-carboxylic acid (5-methyl-[1,3,4]oxadiazol-2-yl)-amide], the inhibition at 10 µM turned out to be 100%. Same read-out and setting: next, `O=C(c1cc(-c2cccc(Cl)c2)ncn1)N1CCCc2ccccc21` [[6-(3-Chloro-phenyl)-pyrimidin-4-yl]-(3,4-dihydro-2H-quinolin-1-yl)-methanone]: 100%; `O=C(c1cc(-c2ccc(Cl)c(Cl)c2)ncn1)N1CCc2cc(F)ccc21` [[6-(3,4-Dichloro-phenyl)-pyrimidin-4-yl]-(5-fluoro-2,3-dihydro-indol-1-yl)-methanone]: 100%. In the case of `Cc1ccccc1NC(=O)c1cc(-c2cccc(Cl)c2)ncn1` [6-(3-Chloro-phenyl)-pyrimidine-4-carboxylic acid o-tolylamide], the inhibition at 10 µM is 96.2%.

On to `COC(=O)c1cc(-c2ccc(F)cc2F)ncn1` [6-(2,4-Difluoro-phenyl)-pyrimidine-4-carboxylic acid methyl ester], for which the inhibition at 10 µM came out at 100%. The same measure, in the same setting: the figure for `COC(=O)c1cc(-c2cncc(F)c2)ncn1` [6-(5-Fluoro-pyridin-3-yl)-pyrimidine-4-carboxylic acid methyl ester] is 87.2%. For `O=C(NCc1ccccc1)c1cc(-c2cccc(Cl)c2)ncn1` [6-(3-Chloro-phenyl)-pyrimidine-4-carboxylic acid benzylamide], the inhibition at 10 µM worked out at 67%. In the case of `COC(=O)c1cc(-c2cc(Cl)ccc2F)ncn1` [6-(5-Chloro-2-fluoro-phenyl)-pyrimidine-4-carboxylic acid methyl ester], the inhibition at 10 µM was 100%. The same measure, in the same setting: the figure for `C[C@@H](O)CNC(=O)c1cc(-c2cccc(Cl)c2)ncn1` [6-(3-Chloro-phenyl)-pyrimidine-4-carboxylic acid ((R)-2-hydroxy-propyl)-amide] is 74.3%; for `CCNC(=O)c1cc(-c2cccc(Cl)c2)ncn1` [6-(3-Chloro-phenyl)-pyrimidine-4-carboxylic acid ethylamide] it is 100%. On the same count and under the same terms, next, `COc1ccncc1NC(=O)c1cc(-c2cccc(Cl)c2)ncn1` [6-(3-Chloro-phenyl)-pyrimidine-4-carboxylic acid (4-methoxy-pyridin-3-yl)-amide]: 91%.

As for `COC(=O)c1cc(-c2ccc(C(F)(F)F)c(Cl)c2)ncn1` [6-(3-Chloro-4-trifluoromethyl-phenyl)-pyrimidine-4-carboxylic acid methyl ester], the inhibition at 10 µM came to 100%. The same measure, in the same setting: next, `O=C(c1cc(-c2cccc(Cl)c2)ncn1)N1CCCC1` [[6-(3-Chloro-phenyl)-pyrimidin-4-yl]-pyrrolidin-1-yl-methanone]: 90.5%; `CC(=O)N1CCN(C(=O)c2cc(-c3cccc(Cl)c3)ncn2)CC1` [1-{4-[6-(3-Chloro-phenyl)-pyrimidine-4-carbonyl]-piperazin-1-yl}-ethanone]: 94.9%.

Regarding `C[C@@H](NC(=O)c1cc(-c2cccc(Cl)c2)ncn1)c1ccccc1` [6-(3-Chloro-phenyl)-pyrimidine-4-carboxylic acid ((R)-1-phenyl-ethyl)-amide], the inhibition at 10 µM is 99.2%.

As to `Cc1cc(NC(=O)c2cc(-c3cccc(Cl)c3)ncn2)on1` [6-(3-Chloro-phenyl)-pyrimidine-4-carboxylic acid (3-methyl-isoxazol-5-yl)-amide], the inhibition at 10 µM was found to be 100%. The same measure, in the same setting: the figure for `COC(=O)c1cc(-c2cc(Cl)cc(Cl)c2)ncn1` [6-(3,5-Dichloro-phenyl)-pyrimidine-4-carboxylic acid methyl ester] is 101%; for `O=C(O)c1cc(-c2cncc(F)c2)ncn1` [6-(5-Fluoro-pyridin-3-yl)-pyrimidine-4-carboxylic acid] it is 96.1%. The same measure, in the same setting: next, `O=C(NCc1ccncc1)c1cc(-c2cccc(Cl)c2)ncn1` [6-(3-Chloro-phenyl)-pyrimidine-4-carboxylic acid (pyridin-4-ylmethyl)-amide]: 100%; `O=C(c1cc(-c2cccc(Cl)c2)ncn1)N1CCc2ccccc21` [[6-(3-Chloro-phenyl)-pyrimidin-4-yl]-(2,3-dihydro-indol-1-yl)-methanone]: 100%. As to `COC(=O)c1cc(-c2cccnc2)ncn1` [6-Pyridin-3-yl-pyrimidine-4-carboxylic acid methyl ester trifluoroacetic acid salt], the inhibition at 10 µM came out at 74.5%. The same measure, in the same setting: next, `O=C(c1cc(-c2cc(Cl)cc(Cl)c2)ncn1)N1CCc2ccccc21` [[6-(3,5-Dichloro-phenyl)-pyrimidin-4-yl]-(2,3-dihydro-indol-1-yl)-methanone]: 98.3%; `COc1cncc(NC(=O)c2cc(-c3cc(Cl)cc(Cl)c3)ncn2)c1` [6-(3,5-Dichloro-phenyl)-pyrimidine-4-carboxylic acid (5-methoxy-pyridin-3-yl)-amide]: 54.8%. For the compound `O=C(O)c1cc(-c2cc(Cl)ccc2F)ncn1` [6-(5-Chloro-2-fluoro-phenyl)-pyrimidine-4-carboxylic acid], the inhibition at 10 µM is 100%.

In the case of `O=C(Nc1cncnc1)c1cc(-c2ccc(Cl)c(Cl)c2)ncn1` [6-(3,4-Dichloro-phenyl)-pyrimidine-4-carboxylic acid pyrimidin-5-ylamide], the inhibition at 10 µM turned out to be 95.5%. Still for that read-out and setting: next, `Cc1ncccc1NC(=O)c1cc(-c2ccc(Cl)c(Cl)c2)ncn1` [6-(3,4-Dichloro-phenyl)-pyrimidine-4-carboxylic acid (2-methyl-pyridin-3-yl)-amide]: 84.2%; `COc1cncc(NC(=O)c2cc(-c3ccc(Cl)c(Cl)c3)ncn2)c1` [6-(3,4-Dichloro-phenyl)-pyrimidine-4-carboxylic acid (5-methoxy-pyridin-3-yl)-amide]: 100%; `Cn1ccc(NC(=O)c2cc(-c3cccc(Cl)c3)ncn2)n1` [6-(3-Chloro-phenyl)-pyrimidine-4-carboxylic acid (1-methyl-1H-pyrazol-3-yl)-amide]: 100%.

On to `O=C(Nc1ncco1)c1cc(-c2cccc(Cl)c2)ncn1` [6-(3-Chloro-phenyl)-pyrimidine-4-carboxylic acid oxazol-2-ylamide], for which the inhibition at 10 µM was 100%. On the same count and under the same terms, next, `O=C(c1cc(-c2ccc(Cl)c(Cl)c2)ccn1)N1CCc2ccccc21` [[4-(3,4-Dichloro-phenyl)-pyridin-2-yl]-(2,3-dihydro-indol-1-yl)-methanone]: 96.6%; `O=C(c1cc(-c2ccc(Cl)c(Cl)c2)ncn1)N1CCCc2ccccc21` [[6-(3,4-Dichloro-phenyl)-pyrimidin-4-yl]-(3,4-dihydro-2H-quinolin-1-yl)-methanone]: 92.6%. Same read-out and setting: next, `COc1ccccc1NC(=O)c1cc(-c2cccc(Cl)c2)ncn1` [6-(3-Chloro-phenyl)-pyrimidine-4-carboxylic acid (2-methoxy-phenyl)-amide]: 100%. Same read-out and setting: next, `O=C(O)c1cc(-c2cc(C(F)(F)F)ccc2F)ncn1` [6-(2-Fluoro-5-trifluoromethyl-phenyl)-pyrimidine-4-carboxylic acid]: 80.3%; `COC(=O)c1cc(-c2ccc(F)c(Cl)c2)ncn1` [6-(3-Chloro-4-fluoro-phenyl)-pyrimidine-4-carboxylic acid methyl ester]: 100%; `O=C(Nc1cccnc1)c1cc(-c2ccc(F)c(F)c2)ncn1` [6-(3,4-Difluoro-phenyl)-pyrimidine-4-carboxylic acid pyridin-3-ylamide]: 84.7%. Consider `O=C(Nc1ncccn1)c1cc(-c2cccc(Cl)c2)ncn1` [6-(3-Chloro-phenyl)-pyrimidine-4-carboxylic acid pyrimidin-2-ylamide], for which the inhibition at 10 µM was 100%. Still for that read-out and setting: the figure for `COC(=O)c1cc(-c2ccc(F)c(F)c2)ncn1` [6-(3,4-Difluoro-phenyl)-pyrimidine-4-carboxylic acid methyl ester] is 100%; for `O=C(c1cc(-c2ccc(Cl)c(Cl)c2)ncn1)N1CCc2cc(Cl)ccc21` [(5-Chloro-2,3-dihydro-indol-1-yl)-[6-(3,4-dichloro-phenyl)-pyrimidin-4-yl]-methanone] it is 100%; for `Cc1ccc(NC(=O)c2cc(-c3ccc(Cl)c(Cl)c3)ncn2)c(C)n1` [6-(3,4-Dichloro-phenyl)-pyrimidine-4-carboxylic acid (2,6-dimethyl-pyridin-3-yl)-amide] it is 96.8%. On the same count and under the same terms, the figure for `O=C(c1cc(-c2cccc(Cl)c2)ncn1)N1CC[C@@H](O)C1` [[6-(3-Chloro-phenyl)-pyrimidin-4-yl]-((R)-3-hydroxy-pyrrolidin-1-yl)-methanone] is 83.9%; for `O=C(Nc1ccc(C(F)(F)F)nc1)c1cc(-c2cccc(Cl)c2)ncn1` [6-(3-Chloro-phenyl)-pyrimidine-4-carboxylic acid (6-trifluoromethyl-pyridin-3-yl)-amide] it is 89.1%. Same read-out and setting: next, `COC(=O)c1cc(-c2cccc(C)c2)ncn1` [6-m-Tolyl-pyrimidine-4-carboxylic acid methyl ester]: 96.3%; `O=C(NCc1cccnc1)c1cc(-c2cccc(Cl)c2)ncn1` [6-(3-Chloro-phenyl)-pyrimidine-4-carboxylic acid (pyridin-3-ylmethyl)-amide]: 96.7%.
